# According to patent US20240352010A1, “SUBSTITUTED 1,2,4-THIADIAZOLYL NICOTINAMIDES, SALTS OR N-OXIDES THEREOF AND THEIR USE AS HERBICIDALLY ACTIVE SUBSTANCES” (BayerAktiengesellschaft, priority 2021, published 2024):
# Legend:
# Type in all cases: in vivo
# Setaria viridis (SETVI) [1] = experiment: Herbicidal pre-emergence action, SETVI
# Source text: (§1) Seeds of mono- and dicotyledonous weed plants were sown in plastic pots (double sowings with one species of mono- and one species of dicotyledonous weed plants per pot), in sandy loam, and covered with soil. The compounds according to the invention, formulated in the form of wettable powders (WP) or as emulsifiable concentrates (EC), were applied to the surface of the covering soil as an aqueous suspension or as an emulsion, with the addition of 0.5% of an additive, at an application rate of 600 litres of water per hectare (converted). Following treatment, the pots were placed in a greenhouse and kept under optimum growth conditions for the test plants. The visual grading of the damage to the test plants is carried out after ca. 3 weeks in comparison to untreated controls (herbicidal effect in percent (%): 100% effect=plants have died, 0% effect=as control plants). Seeds of mono- and dicotyledonous weed plants were sown in plastic pots (double sowings with one species of mono- and one species of dicotyledonous weed plants per pot), in sandy loam, and covered with soil. The compounds according to the invention, formulated in the form of wettable powders (WP) or as emulsifiable concentrates (EC), were applied to the surface of the covering soil as an aqueous suspension or as an emulsion, with the addition of 0.5% of an additive, at an application rate of 600 litres of water per hectare (converted). Following treatment, the pots were placed in a greenhouse and kept under optimum growth conditions for the test plants. The visual grading of the damage to the test plants is carried out after ca. 3 weeks in comparison to untreated controls (herbicidal effect in percent (%): 100% effect=plants have died, 0% effect=as control plants).
# Poa annua (POAAN) = experiment: Herbicidal pre-emergence action, POAAN
# Source text: as §1
# [2] = system: Matricaria inodora (MATIN); experiment: Herbicidal post-emergence action, MATIN
# Source text: (§2) Seeds of mono- and dicotyledonous weed plants were sown in plastic pots (double sowings with one species of mono- and one species of dicotyledonous weed plants per pot), in sandy loam, covered with soil and grown under controlled growth conditions. 2 to 3 weeks after sowing, the test plants were sprayed in the single-leaf stage. The compounds according to the invention, formulated in the form of wettable powders (WP) or as emulsifiable concentrates (EC), were sprayed onto the green plant parts as an aqueous suspension or as an emulsion, with the addition of 0.5% of an additive, at an application rate of 600 litres of water per hectare (converted). The test plants were placed in the greenhouse for ca. 3 weeks under optimum growth conditions, and then the effect of the preparations is assessed visually in comparison with untreated controls (herbicidal effect in percent (%): 100% effect=plants have died, 0% effect=as control plants). […]
# Veronica persica (VERPE) = experiment: Herbicidal pre-emergence action, VERPE
# Source text: as §1
# [3] = system: Digitaria sanguinalis (DIGSA); experiment: Herbicidal pre-emergence action, DIGSA
# Source text: as §1
# Kochia scoparia (KCHSC) = experiment: Herbicidal post-emergence action, KCHSC
# Source text: as §2
# [4] = system: Abutilon theophrasti (ABUTH); experiment: Herbicidal post-emergence action, ABUTH; conditions: 1280 g/ha, assessed visually after ca. 3 weeks vs untreated controls (Table B1)
# Source text: (§3) Seeds of mono- and dicotyledonous weed plants were sown in plastic pots (double sowings with one species of mono- and one species of dicotyledonous weed plants per pot), in sandy loam, covered with soil and grown under controlled growth conditions. 2 to 3 weeks after sowing, the test plants were sprayed in the single-leaf stage. The compounds according to the invention, formulated in the form of wettable powders (WP) or as emulsifiable concentrates (EC), were sprayed onto the green plant parts as an aqueous suspension or as an emulsion, with the addition of 0.5% of an additive, at an application rate of 600 litres of water per hectare (converted). The test plants were placed in the greenhouse for ca. 3 weeks under optimum growth conditions, and then the effect of the preparations is assessed visually in comparison with untreated controls (herbicidal effect in percent (%): 100% effect=plants have died, 0% effect=as control plants).
# [5] = system: Alopecurus myosuroides (ALOMY); experiment: Herbicidal pre-emergence action, ALOMY; conditions: 1280 g/ha, visual grading after ca. 3 weeks vs untreated controls (Table A12)
# Source text: Seeds of mono- and dicotyledonous weed plants were sown in plastic pots (double sowings with one species of mono- and one species of dicotyledonous weed plants per pot), in sandy loam, and covered with soil. The compounds according to the invention, formulated in the form of wettable powders (WP) or as emulsifiable concentrates (EC), were applied to the surface of the covering soil as an aqueous suspension or as an emulsion, with the addition of 0.5% of an additive, at an application rate of 600 litres of water per hectare (converted). Following treatment, the pots were placed in a greenhouse and kept under optimum growth conditions for the test plants. The visual grading of the damage to the test plants is carried out after ca. 3 weeks in comparison to untreated controls (herbicidal effect in percent (%): 100% effect=plants have died, 0% effect=as control plants).
# Setaria viridis (SETVI) [6] = experiment: Herbicidal post-emergence action, SETVI
# Source text: as §2
# [7] = system: Alopecurus myosuroides (ALOMY); experiment: Herbicidal post-emergence action, ALOMY; conditions: 1280 g/ha, assessed visually after ca. 3 weeks vs untreated controls (Table B2)
# Source text: as §3
# [8] = 320 g/ha, visual grading after ca. 3 weeks vs untreated controls (Table C5)
# [9] = 1280 g/ha, visual grading after ca. 3 weeks vs untreated controls (Table A8)
# [10] = 320 g/ha, visual grading after ca. 3 weeks vs untreated controls (Table C4)
# [11] = 1280 g/ha, visual grading after ca. 3 weeks vs untreated controls (Table A7)
# [12] = 320 g/ha, assessed visually after ca. 3 weeks vs untreated controls (Table D2)
# [13] = 1280 g/ha, assessed visually after ca. 3 weeks vs untreated controls (Table B6)
# [14] = 320 g/ha, visual grading after ca. 3 weeks vs untreated controls (Table C7)
# [15] = 1280 g/ha, visual grading after ca. 3 weeks vs untreated controls (Table A10)
# [16] = 1280 g/ha, visual grading after ca. 3 weeks vs untreated controls (Table A2)
# [17] = 320 g/ha, assessed visually after ca. 3 weeks vs untreated controls (Table D1)
# [18] = 1280 g/ha, assessed visually after ca. 3 weeks vs untreated controls (Table B4)
Compound,"herbicidal effect in percent, SETVI (Setaria viridis (SETVI) [1]; [8])","herbicidal effect in percent, SETVI (Setaria viridis (SETVI) [1]; [9])","herbicidal effect in percent, POAAN (Poa annua (POAAN); [10])","herbicidal effect in percent, POAAN (Poa annua (POAAN); [11])","herbicidal effect in percent, MATIN [2, 12]","herbicidal effect in percent, MATIN [2, 13]","herbicidal effect in percent, VERPE (Veronica persica (VERPE); [14])","herbicidal effect in percent, VERPE (Veronica persica (VERPE); [15])","herbicidal effect in percent, DIGSA [3, 16]","herbicidal effect in percent, KCHSC (Kochia scoparia (KCHSC); [17])","herbicidal effect in percent, KCHSC (Kochia scoparia (KCHSC); [18])","herbicidal effect in percent, ABUTH [4]","herbicidal effect in percent, ALOMY [5]","herbicidal effect in percent, SETVI (Setaria viridis (SETVI) [6]; 320 g/ha, assessed visually after ca. 3 weeks vs untreated controls (Table D8))","herbicidal effect in percent, SETVI (Setaria viridis (SETVI) [6]; 1280 g/ha, assessed visually after ca. 3 weeks vs untreated controls (Table B7))","herbicidal effect in percent, DIGSA ([3]; 320 g/ha, visual grading after ca. 3 weeks vs untreated controls (Table C10))","herbicidal effect in percent, ALOMY [7]"
"O=C(Nc1ncns1)c1c(C2CC2)ccnc1Cl [Example I-003, 2-chloro-4-cyclopropyl-N-(1,2,4-thiadiazol-5-yl)pyridine-3-carboxamide]",100%,100%,90%,100%,90%,100%,90%,90%,90%,90%,100%,90%,–,–,–,–,–
O=C(Nc1ncns1)c1c(C2CC2)ccnc1F [Example I-005],100%,100%,100%,100%,100%,100%,90%,100%,90%,100%,100%,–,100%,90%,100%,90%,90%
O=C(Nc1nc(Cl)ns1)c1c(C2CC2)ccnc1Cl [Example I-013],–,–,–,–,90%,90%,–,90%,–,–,–,90%,–,–,–,–,90%
